Numbered stars: 1 amine (or outer) side, 2 acyl side, 3 side chain; on linkers, the order of the positions; unused ones are H or OH. Square brackets hold non-standard residues; d marks the D form. Ends that are not written are not given here. Peptide text beside a SMILES is read from it. 2Furoyl(5-aminomethyl) = O=C(c1ccc(CN[*:1])o1)[*:2]; Aib = CC(C)(N)C(=O)O
Tests used:
GLP-1R = biological target: T1, GLP-1R (Homo sapiens, UniProt P43220); assay: In vitro receptor functional assay (cAMP) in CHO/GLP-1R cells; type: cell-based; details: intracellular cAMP, 30 min with 1 mM IBMX
T1 construct: expressed in transfected cells; host or cells: CHO/GLP-1R cells
T1 sequence (P43220 24-463, species assumed): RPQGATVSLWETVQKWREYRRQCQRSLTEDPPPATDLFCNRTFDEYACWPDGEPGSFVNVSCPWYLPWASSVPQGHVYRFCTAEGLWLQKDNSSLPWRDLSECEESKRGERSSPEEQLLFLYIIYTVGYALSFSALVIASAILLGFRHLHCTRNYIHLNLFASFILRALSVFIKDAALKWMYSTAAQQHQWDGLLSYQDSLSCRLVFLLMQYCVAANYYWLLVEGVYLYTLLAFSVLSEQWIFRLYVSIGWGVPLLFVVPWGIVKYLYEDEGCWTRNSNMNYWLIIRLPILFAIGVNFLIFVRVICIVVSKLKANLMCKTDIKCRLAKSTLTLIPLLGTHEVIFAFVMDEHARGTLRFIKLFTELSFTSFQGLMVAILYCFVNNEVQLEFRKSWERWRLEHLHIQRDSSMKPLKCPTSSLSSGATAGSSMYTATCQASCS
Source text: cAMP is a ubiquitous cellular second messenger that is critical component of a signal transduction pathway linking membrane receptors and their ligands to the activation of internal cellular enzymatic activity and gene expression. cAMP is synthesized from ATP by membrane bound adenylate cyclase in a very regulated manner. In its simpler form, binding of a ligand, such as hormone or drug, to its specific G protein coupled receptor can either stimulate or inhibit adenylate cyclase depending on the GPCR being activated. […] Therefore the relative concentration of cAMP serves as a means to monitor the activity of GPCRs at the cell surface.
CHO/GLP-1R Cell Culture—CHO/GLP-1R Cells were maintained in Ham's F-12 medium containing 10% Fetal bovine serum and 1% penicillin-streptomycin antibiotic solution at 37° C. in a 5% CO2 incubator.
Cells were washed twice with PBS (pH-7.2) and incubated with 100 μl Ham's F-12 serum free medium supplemented with 0.1% BSA for 2 hr at 37° C. in 5% CO2 incubator. Cells were then incubated in 100 μl Ham's F-12 serum free medium supplemented with 0.1% BSA with 1 mM IBMX in the presence as well as absence of the peptides as per present invention in different concentration (10 nM, 1 nM, 100 pM & 10 pM). The reaction was stopped 30 min later by washing the intact cells three times with ice cold PBS (pH-7.2). The intracellular cAMP was extracted by incubating the cells in 100 μl 0.1N HCl at room temperature for 20 minutes. Mixture was dissociated by pipetting up and down until the suspension became homogenous, transferred to centrifuge tube and centrifuged at 800 rpm for 10 minutes.
Dissolved 5 pNPP tablets in 25 ml DEA buffer. Wells were emptied and washed five times with wash buffer and added 200 μl pNPP solution to each well, plate was covered and allowed to develop in dark for 90 minutes.

DPP-IV = biological target: T2, DPP-IV (Homo sapiens, UniProt P27487); assay: DPP-IV resistant assay; type: in vitro ADME; details: for half-life at 20 μM: pH 8
T2 construct: purchased Sigma-Aldrich
T2 sequence (P27487 whole entry, species assumed): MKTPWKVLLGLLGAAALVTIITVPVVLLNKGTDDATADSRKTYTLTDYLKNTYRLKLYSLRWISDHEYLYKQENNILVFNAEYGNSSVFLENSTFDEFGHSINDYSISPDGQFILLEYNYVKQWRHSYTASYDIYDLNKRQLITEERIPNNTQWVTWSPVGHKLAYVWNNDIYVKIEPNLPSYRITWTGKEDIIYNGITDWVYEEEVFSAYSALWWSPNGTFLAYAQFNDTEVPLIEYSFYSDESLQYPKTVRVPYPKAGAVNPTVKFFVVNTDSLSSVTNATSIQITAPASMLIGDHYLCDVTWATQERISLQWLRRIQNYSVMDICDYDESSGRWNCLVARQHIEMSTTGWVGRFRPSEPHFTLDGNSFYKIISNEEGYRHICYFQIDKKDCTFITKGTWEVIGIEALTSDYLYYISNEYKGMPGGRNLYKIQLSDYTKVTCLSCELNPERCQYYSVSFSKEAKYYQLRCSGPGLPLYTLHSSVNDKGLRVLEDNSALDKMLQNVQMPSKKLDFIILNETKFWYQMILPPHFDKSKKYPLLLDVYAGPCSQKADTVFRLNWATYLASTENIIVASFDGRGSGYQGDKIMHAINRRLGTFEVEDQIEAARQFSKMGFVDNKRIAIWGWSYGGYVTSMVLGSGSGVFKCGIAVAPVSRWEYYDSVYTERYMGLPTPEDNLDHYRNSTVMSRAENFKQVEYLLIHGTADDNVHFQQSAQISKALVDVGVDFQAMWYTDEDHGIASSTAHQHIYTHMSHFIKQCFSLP
Protocol: 20 μM of peptides of the present invention (Sequence IDs—01, 02, 03, 04, 05, 06, 11, 12 and 13) were incubated with 60 mU/2 ml of DPP-IV (Sigma-Aldrich) enzyme at room temperature (22-24° C.) in 20 mM Tris HCl buffer, pH 8.0. The aliquots were analyzed for the amount of undegraded peptide concentration at different time intervals by RP-HPLC. The peak area integration was used to determine the amount of undegraded peptide (U.S. Pat. No. 7,067,488). T1/2 of each peptide was determined from the graph plotted between peak area of undegraded peptide vs. time. The peak area of DPP-IV untreated peptide in above mentioned buffer condition of same concentration was considered as time zero. […]

NEP 24.11 = biological target: T3, NEP 24.11 (Homo sapiens, UniProt P08473); assay: NEP 24.11 resistant (degradation) assay; type: in vitro ADME; details: pH 7.4; for half-life at 20 μM: buffer; for metabolised at 54 h, 20 μM: isolated enzyme neprilysin
T3 construct: purchased Calbiochem
T3 sequence (P08473 whole entry): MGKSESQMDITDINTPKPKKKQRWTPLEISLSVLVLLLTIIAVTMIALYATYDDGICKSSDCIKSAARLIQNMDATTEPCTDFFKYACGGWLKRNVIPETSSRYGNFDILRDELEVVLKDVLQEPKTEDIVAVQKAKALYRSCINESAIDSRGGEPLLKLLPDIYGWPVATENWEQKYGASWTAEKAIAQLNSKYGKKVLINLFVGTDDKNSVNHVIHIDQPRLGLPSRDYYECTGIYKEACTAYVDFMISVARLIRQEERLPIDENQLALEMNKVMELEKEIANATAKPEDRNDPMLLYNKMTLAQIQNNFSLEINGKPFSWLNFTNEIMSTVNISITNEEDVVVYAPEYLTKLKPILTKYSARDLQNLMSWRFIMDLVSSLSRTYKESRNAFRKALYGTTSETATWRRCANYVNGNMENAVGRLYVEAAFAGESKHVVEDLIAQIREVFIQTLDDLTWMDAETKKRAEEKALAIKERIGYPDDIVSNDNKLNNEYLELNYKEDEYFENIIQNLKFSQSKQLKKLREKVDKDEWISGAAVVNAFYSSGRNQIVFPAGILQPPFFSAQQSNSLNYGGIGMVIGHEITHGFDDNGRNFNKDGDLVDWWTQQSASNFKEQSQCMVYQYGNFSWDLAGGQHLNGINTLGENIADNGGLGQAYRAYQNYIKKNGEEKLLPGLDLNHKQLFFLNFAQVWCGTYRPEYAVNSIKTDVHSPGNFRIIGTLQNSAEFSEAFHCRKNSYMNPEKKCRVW
Protocol: The aliquots were analyzed for the amount of undegraded peptide concentration at different time intervals using RP-HPLC by peak area integration. T1/2 of each peptide was determined from the graph plotted between peak area of undegraded peptide vs time.

C57BL/6 mice = assay: Oral Glucose Tolerance Test (OGTT) in C57BL/6 mice, 2 μg per mouse; type: in vivo; details: 2 μg/mouse intraperitoneally, FIG. 4
Protocol: A volume of 100 μl of peptides of present invention (2 μg per mouse) were injected intraperitoneally into 6 hr fasted C57BL/6 normal male/female mice (4-6 wk). After 6 h of fasting, fasting glucose level was be assessed by using a Glucometer (Accu-Chek) from tail vein or the retro-orbital sinus. Glucose was given orally at the ratio 1 mg/g body wt. per mouse 5 min after the administration of peptides. Blood glucose levels were assessed at different time points i.e. at 0, 15, 30, 60, 120 and 180 min.
The graph was plotted for blood glucose (mg/dl) level against time.
The saline solution was administered to the female mice as control negative.

Compound	EC50 (GLP-1R) [nM]	Percentage degradation in hrs (DPP-IV) [%]	half-life at 20 μM (DPP-IV) [min]	half-life at 20 μM (NEP 24.11) [min]	metabolised at 54 h, 20 μM (NEP 24.11) [%]	percent reduction in blood glucose (AUC0-60) compared with GLP-1(7-37) parent (C57BL/6 mice)
CC[C@H](C)[C@H](NC(=O)[C@H](Cc1ccccc1)NC(=O)[C@H](CCC(=O)O)NC(=O)[C@H](CCCCN)NC(=O)[C@H](C)NC(=O)[C@H](C)NC(=O)[C@H](CCC(N)=O)NC(=O)CNC(=O)[C@H](CCC(=O)O)NC(=O)[C@H](CC(C)C)NC(=O)[C@H](Cc1ccc(O)cc1)NC(=O)[C@H](CO)NC(=O)[C@H](CO)NC(=O)[C@@H](NC(=O)[C@H](CC(=O)O)NC(=O)[C@H](CO)NC(=O)[C@@H](NC(=O)[C@H](Cc1ccccc1)NC(=O)[C@@H](NC(=O)CNC(=O)c1ccc(CNC(=O)[C@@H](N)Cc2c[nH]cn2)o1)[C@@H](C)O)[C@@H](C)O)C(C)C)C(=O)N[C@@H](C)C(=O)N[C@@H](Cc1c[nH]c2ccccc12)C(=O)N[C@@H](CC(C)C)C(=O)N[C@H](C(=O)N[C@@H](CCCCN)C(=O)NCC(=O)N[C@@H](CCCNC(=N)N)C(=O)NCC(N)=O)C(C)C [Seq ID No. 02]	0.043	43.62	> 1440	–	–	–
CC[C@H](C)[C@H](NC(=O)[C@H](Cc1ccccc1)NC(=O)[C@H](CCC(=O)O)NC(=O)[C@H](CCCCN)NC(=O)[C@H](C)NC(=O)[C@H](C)NC(=O)[C@H](CCC(N)=O)NC(=O)CNC(=O)[C@H](CCC(=O)O)NC(=O)[C@H](CC(C)C)NC(=O)[C@H](Cc1ccc(O)cc1)NC(=O)[C@H](CO)NC(=O)[C@H](CO)NC(=O)[C@@H](NC(=O)[C@H](CC(=O)O)NC(=O)[C@H](CO)NC(=O)[C@@H](NC(=O)[C@H](Cc1ccccc1)NC(=O)[C@@H](NC(=O)CNC(=O)[C@H](CCC(=O)O)NC(=O)c1ccc(CNC(=O)[C@@H](N)Cc2c[nH]cn2)o1)[C@@H](C)O)[C@@H](C)O)C(C)C)C(=O)N[C@@H](C)C(=O)N[C@@H](Cc1c[nH]c2ccccc12)C(=O)N[C@@H](CC(C)C)C(=O)N[C@H](C(=O)N[C@@H](CCCCN)C(=O)NCC(=O)N[C@@H](CCCNC(=N)N)C(N)=O)C(C)C [Seq ID No. 03]	0.061	13	> 4320	1740	96.8	–
CC[C@H](C)[C@H](NC(=O)[C@H](Cc1ccccc1)NC(=O)[C@H](CCC(=O)O)NC(=O)[C@H](CCCCN)NC(=O)[C@H](C)NC(=O)[C@H](C)NC(=O)[C@H](CCC(N)=O)NC(=O)CNC(=O)[C@H](CCC(=O)O)NC(=O)[C@H](CC(C)C)NC(=O)[C@H](Cc1ccc(O)cc1)NC(=O)[C@H](CO)NC(=O)[C@H](CO)NC(=O)C(C)(C)NC(=O)[C@H](CC(=O)O)NC(=O)[C@H](CO)NC(=O)[C@@H](NC(=O)[C@H](Cc1ccccc1)NC(=O)[C@@H](NC(=O)CNC(=O)[C@H](CCC(=O)O)NC(=O)CNC(=O)[C@@H](N)Cc1c[nH]cn1)[C@@H](C)O)[C@@H](C)O)C(=O)NC(C)(C)C(=O)N[C@@H](Cc1c[nH]c2ccccc12)C(=O)N[C@@H](CC(C)C)C(=O)N[C@H](C(=O)N[C@@H](CCCCN)C(=O)NCC(=O)N[C@@H](CCCNC(=N)N)C(N)=O)C(C)C [Seq ID No. 05] (H-HGEGTFTSD[Aib]SSYLEGQAAKEFI[Aib]WLVKGR-NH2)	0.083	–	1480	2940	59.4	–
CC[C@H](C)[C@H](NC(=O)[C@H](Cc1ccccc1)NC(=O)[C@H](CCC(=O)O)NC(=O)[C@H](CCCCN)NC(=O)[C@H](C)NC(=O)[C@H](C)NC(=O)[C@H](CCC(N)=O)NC(=O)CNC(=O)[C@H](CCC(=O)O)NC(=O)[C@H](CC(C)C)NC(=O)[C@H](Cc1ccc(O)cc1)NC(=O)[C@H](CO)NC(=O)[C@H](CO)NC(=O)[C@@H](NC(=O)[C@H](CC(=O)O)NC(=O)[C@H](CO)NC(=O)[C@@H](NC(=O)[C@H](Cc1ccccc1)NC(=O)[C@@H](NC(=O)CNC(=O)[C@H](CCC(=O)O)NC(=O)[C@H]1O[C@H](OC)[C@H](NC(=O)[C@@H](N)Cc2c[nH]cn2)[C@@H](O)[C@@H]1O)[C@@H](C)O)[C@@H](C)O)C(C)C)C(=O)N[C@@H](C)C(=O)N[C@@H](Cc1c[nH]c2ccccc12)C(=O)N[C@@H](CC(C)C)C(=O)N[C@H](C(=O)N[C@@H](CCCCN)C(=O)NCC(=O)N[C@@H](CCCNC(=N)N)C(N)=O)C(C)C [Seq ID No. 06]	0.838	–	260	–	–	–
CC[C@H](C)[C@H](NC(=O)[C@H](Cc1ccccc1)NC(=O)[C@H](CCC(=O)O)NC(=O)[C@H](CCCCN)NC(=O)[C@H](C)NC(=O)[C@H](C)NC(=O)[C@H](CCC(N)=O)NC(=O)CNC(=O)[C@H](CCC(=O)O)NC(=O)[C@H](CC(C)C)NC(=O)[C@H](Cc1ccc(O)cc1)NC(=O)[C@H](CO)NC(=O)[C@H](CO)NC(=O)C(C)(C)NC(=O)[C@H](CC(=O)O)NC(=O)[C@H](CO)NC(=O)[C@@H](NC(=O)[C@H](Cc1ccccc1)NC(=O)[C@@H](NC(=O)CNC(=O)c1ccc(CNC(=O)[C@@H](N)Cc2c[nH]cn2)o1)[C@@H](C)O)[C@@H](C)O)C(=O)NC(C)(C)C(=O)N[C@@H](Cc1c[nH]c2ccccc12)C(=O)N[C@@H](CC(C)C)C(=O)N[C@H](C(=O)N[C@@H](CCCCN)C(=O)NCC(=O)N[C@@H](CCCNC(=N)N)C(=O)NCC(N)=O)C(C)C [Seq ID No. 10] (H-H[2Furoyl(5-aminomethyl)]GTFTSD[Aib]SSYLEGQAAKEFI[Aib]WLVKGRG-NH2)	3.38	–	–	–	–	–
Seq ID No 01 (H[2Furoyl(5-aminomethyl)]EGTFTSDVSSYLEGQAAKEFIAWLVKGRG-NH2)	–	–	–	–	–	comparable activity to the GLP-1(7-37) parent peptide
Seq ID No.05 (HGEGTFTSDXSSYLEGQAAKEFIXWLVKGR)	–	–	–	–	–	better activity than GLP-1(7-37) parent peptide

Source: US20110269680A1 (PANACEA BIOTEC LIMITED, priority 2008, published 2011)
